Laboratory results published in PubChem BioAssay AID330 (DTP/NCI, 2004).
Several values for one entry are separate records, joined by “and”; a condition that tells them apart may be missing. Identical values can stand only once. Inconclusive results and toxic doses are left out.

System: P388 leukemia ip, CD2F1 mice, survival T/C
Assay: NCI In Vivo Anticancer Drug Screen. Data for tumor model P388 Leukemia (intraperitoneal) in CD2F1 (CDF1) mice
Settings: endpoint: median survival time, higher = longer survival
In short: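 Mice carrying the transplanted tumor received test compound or vehicle. Survival was recorded in each group, and the value is the treated-group measurement divided by that of the vehicle-treated control group.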

[1] = dose: 15.0 mg/kg/injection, schedule: Q01DX005 (ip), vehicle: saline
[2] = dose: 30.0 mg/kg/injection, schedule: Q01DX005 (ip), vehicle: saline
[3] = dose: 50.0 mg/kg/injection, schedule: Q01DX005 (ip), vehicle: saline with Tween-80
[4] = dose: 100.0 mg/kg/injection, schedule: Q01DX005 (ip), vehicle: saline with Tween-80
[5] = dose: 200.0 mg/kg/injection, schedule: Q01DX005 (ip), vehicle: saline with Tween-80
[6] = dose: 12.5 mg/kg/injection, schedule: Q01DX009 (ip), vehicle: saline with Tween-80
[7] = dose: 25.0 mg/kg/injection, schedule: Q01DX009 (ip), vehicle: saline with Tween-80
[8] = dose: 50.0 mg/kg/injection, schedule: Q01DX009 (ip), vehicle: saline with Tween-80
[9] = dose: 100.0 mg/kg/injection, schedule: Q01DX009 (ip), vehicle: saline with Tween-80
[10] = dose: 50.0 mg/kg/injection, schedule: Q04DX003 (ip), vehicle: saline
[11] = dose: 100.0 mg/kg/injection, schedule: Q04DX003 (ip), vehicle: saline
[12] = dose: 50.0 mg/kg/injection, schedule: Q01DX005 (ip), vehicle: Klucel (hydroxypropylcellulose) (HPC)
[13] = dose: 100.0 mg/kg/injection, schedule: Q01DX005 (ip), vehicle: Klucel (hydroxypropylcellulose) (HPC)
[14] = dose: 200.0 mg/kg/injection, schedule: Q01DX005 (ip), vehicle: Klucel (hydroxypropylcellulose) (HPC)

## CN(Cc1cnc2nc(N)nc(N)c2c1)c1ccc(C(=O)NC(CCC(=O)O)C(=O)O)cc1 (centres undefined)
dose: 0.25 mg/kg/injection, schedule: Q01DX005 (ip), vehicle: other
  T/C: 123 % of control
dose: 1.0 mg/kg/injection, schedule: Q01DX005 (ip), vehicle: other
  T/C: 154 % of control
dose: 2.0 mg/kg/injection, schedule: Q01DX005 (ip), vehicle: other
  T/C: 150 % of control and 170 % of control
dose: 4.0 mg/kg/injection, schedule: Q01DX005 (ip), vehicle: other
  T/C: 166 % of control and 186 % of control and 197 % of control
dose: 6.0 mg/kg/injection, schedule: Q01DX005 (ip), vehicle: other
  T/C: 197 % of control

## CC(C)c1nnc2cc3c(cc2c1N)oc1ccccc13
dose: 100.0 mg/kg/injection, schedule: Q04DX002 (ip), vehicle: saline with Tween-80
  T/C: 87 % of control
dose: 200.0 mg/kg/injection, schedule: Q04DX002 (ip), vehicle: saline with Tween-80
  T/C: 92 % of control
dose: 400.0 mg/kg/injection, schedule: Q04DX002 (ip), vehicle: saline with Tween-80
  T/C: 87 % of control

## Cc1c(O)c2ccccc2c2c1sc(NCCCN(CCO)CCO)[n+]2C
dose: 7.5 mg/kg/injection, schedule: Q01DX005 (ip), vehicle: saline
  T/C: 109 % of control
[1]
  T/C: 107 % of control
[2]
  T/C: 110 % of control

## COc1ccc(/C=N/NC(=O)CNC(=O)n2ccnc2)cc1
[3]
  T/C: 100 % of control
[4]
  T/C: 92 % of control
[5]
  T/C: 91 % of control

## CC(=O)NC(CSc1ccccc1)C(=O)O (centres undefined)
[3]
  T/C: 100 % of control
[4]
  T/C: 100 % of control
[5]
  T/C: 99 % of control

## CCC(c1ccccc1)c1cc(C(C)(C)C)cc(C(C)(C)C)c1O (centres undefined)
dose: 50.0 mg/kg/injection, schedule: Q01DX005 (ip), vehicle: distilled water + alcohol
  T/C: 100 % of control
dose: 100.0 mg/kg/injection, schedule: Q01DX005 (ip), vehicle: distilled water + alcohol
  T/C: 107 % of control
dose: 200.0 mg/kg/injection, schedule: Q01DX005 (ip), vehicle: distilled water + alcohol
  T/C: 100 % of control

## CC(=O)Oc1ccc(OC(C)=O)c(CBr)c1CBr
dose: 25.0 mg/kg/injection, schedule: Q04DX002 (ip), vehicle: Klucel (hydroxypropylcellulose) (HPC)
  T/C: 100 % of control
dose: 50.0 mg/kg/injection, schedule: Q04DX002 (ip), vehicle: Klucel (hydroxypropylcellulose) (HPC)
  T/C: 95 % of control
dose: 100.0 mg/kg/injection, schedule: Q04DX002 (ip), vehicle: Klucel (hydroxypropylcellulose) (HPC)
  T/C: 87 % of control and 93 % of control

## Cc1coc2c1CCC(C)C2 (centres undefined)
[6]
  T/C: 92 % of control
[7]
  T/C: 107 % of control
[8]
  T/C: 100 % of control and 110 % of control

## COc1cccc2c1C(=O)c1c(O)c3c(c(O)c1C2=O)C[C@@](O)(/C(C)=N\NC=O)C[C@@H]3OC1CC(N)C(O)C(C)O1 (some centres undefined)
dose: 0.65 mg/kg/injection, schedule: Q01DX009 (ip), vehicle: saline
  T/C: 150 % of control
dose: 1.08 mg/kg/injection, schedule: Q01DX009 (ip), vehicle: saline
  T/C: 150 % of control
dose: 1.8 mg/kg/injection, schedule: Q01DX009 (ip), vehicle: saline
  T/C: 159 % of control
dose: 3.0 mg/kg/injection, schedule: Q01DX009 (ip), vehicle: saline
  T/C: 163 % of control
dose: 3.0 mg/kg/injection, schedule: Q04DX003 (ip), vehicle: saline
  T/C: 150 % of control
dose: 5.0 mg/kg/injection, schedule: Q01DX009 (ip), vehicle: saline
  T/C: 163 % of control
dose: 5.0 mg/kg/injection, schedule: Q04DX003 (ip), vehicle: saline
  T/C: 154 % of control
dose: 8.0 mg/kg/injection, schedule: Q01DX001 (ip), vehicle: saline
  T/C: 154 % of control
dose: 8.0 mg/kg/injection, schedule: Q01DX009 (ip), vehicle: saline
  T/C: 177 % of control
dose: 8.0 mg/kg/injection, schedule: Q04DX003 (ip), vehicle: saline
  T/C: 172 % of control
dose: 13.3 mg/kg/injection, schedule: Q01DX001 (ip), vehicle: saline
  T/C: 154 % of control
dose: 22.2 mg/kg/injection, schedule: Q01DX001 (ip), vehicle: saline
  T/C: 172 % of control
dose: 22.2 mg/kg/injection, schedule: Q04DX003 (ip), vehicle: saline
  T/C: 190 % of control
dose: 37.0 mg/kg/injection, schedule: Q01DX001 (ip), vehicle: saline
  T/C: 181 % of control

## CCN(CC)CCOc1ccccc1/C=C/c1noc2ccccc12
[1]
  T/C: 94 % of control
[2]
  T/C: 91 % of control
dose: 60.0 mg/kg/injection, schedule: Q01DX005 (ip), vehicle: saline
  T/C: 98 % of control

## CCOC(=O)c1ccc(NN=NC)cc1
[6]
  T/C: 108 % of control and 113 % of control
[8]
  T/C: 154 % of control and 173 % of control
[9]
  T/C: 108 % of control and 91 % of control

## NC(=O)c1cc(Cl)nc2nc(Cl)nc(N)c12
[3]
  T/C: 105 % of control
dose: 50.0 mg/kg/injection, schedule: Q04DX003 (ip), vehicle: saline with Tween-80
  T/C: 101 % of control
[4]
  T/C: 105 % of control
dose: 100.0 mg/kg/injection, schedule: Q04DX003 (ip), vehicle: saline with Tween-80
  T/C: 100 % of control and 114 % of control
[5]
  T/C: 108 % of control
dose: 200.0 mg/kg/injection, schedule: Q04DX003 (ip), vehicle: saline with Tween-80
  T/C: 106 % of control
dose: 400.0 mg/kg/injection, schedule: Q01DX005 (ip), vehicle: saline with Tween-80
  T/C: 112 % of control
dose: 400.0 mg/kg/injection, schedule: Q04DX003 (ip), vehicle: saline with Tween-80
  T/C: 110 % of control and 111 % of control

## CN(C)CCCN1CCC2(CCC(C(C)(C)C)CC2)CC1
[3]
  T/C: 106 % of control
[4]
  T/C: 116 % of control

## O=c1cccc2n1C[C@H]1C[C@@H]2CN2CCCC[C@H]12
dose: 6.25 mg/kg/injection, schedule: Q01DX005 (ip), vehicle: saline
  T/C: 99 % of control
dose: 12.5 mg/kg/injection, schedule: Q01DX005 (ip), vehicle: saline
  T/C: 99 % of control

## OC1CCC(O)C1(Cl)Cl (centres undefined)
dose: 25.0 mg/kg/injection, schedule: Q04DX003 (ip), vehicle: saline
  T/C: 99 % of control and 96 % of control
[10]
  T/C: 98 % of control and 107 % of control
[11]
  T/C: 98 % of control and 103 % of control and 118 % of control
dose: 200.0 mg/kg/injection, schedule: Q04DX003 (ip), vehicle: saline
  T/C: 98 % of control and 101 % of control and 124 % of control
dose: 400.0 mg/kg/injection, schedule: Q04DX003 (ip), vehicle: saline
  T/C: 117 % of control

## COP(=O)(OC)C1c2ccccc2-c2cccc(C(=O)O)c21 (centres undefined)
[12]
  T/C: 105 % of control
[13]
  T/C: 106 % of control
[14]
  T/C: 110 % of control

## Oc1cc2c(cc1O)C(c1ccccc1)CNCC2 (centres undefined)
[7]
  T/C: 103 % of control
[8]
  T/C: 97 % of control
[9]
  T/C: 104 % of control

## CC(=O)N(CCCCCCN(C(C)=O)C(C)=O)C(C)=O
[12]
  T/C: 96 % of control
[13]
  T/C: 105 % of control
[14]
  T/C: 92 % of control
dose: 400.0 mg/kg/injection, schedule: Q01DX005 (ip), vehicle: Klucel (hydroxypropylcellulose) (HPC)
  T/C: 94 % of control

## NC1=C(O)C(=O)C(c2c(Cl)cccc2Cl)O1 (centres undefined)
dose: 60.0 mg/kg/injection, schedule: Q01DX005 (ip), vehicle: Klucel (hydroxypropylcellulose) (HPC)
  T/C: 105 % of control
dose: 120.0 mg/kg/injection, schedule: Q01DX005 (ip), vehicle: Klucel (hydroxypropylcellulose) (HPC)
  T/C: 102 % of control
dose: 240.0 mg/kg/injection, schedule: Q01DX005 (ip), vehicle: Klucel (hydroxypropylcellulose) (HPC)
  T/C: 105 % of control

## Nc1nc2c(c(=O)[nH]1)N(C(=O)CCCCCCC(=O)N1c3c(nc(N)[nH]c3=O)NCC1CNc1ccc(C(=O)NC(CCC(=O)O)C(=O)O)cc1)C(CNc1ccc(C(=O)NC(CCC(=O)O)C(=O)O)cc1)CN2 (centres undefined) (tested in a mixture with another compound)
[3]
  T/C: 100 % of control
[4]
  T/C: 96 % of control
[5]
  T/C: 100 % of control

## O=C1C=C2OCOC2=C/C1=C/C=C/c1ccccc1
dose: 2.5 mg/kg/injection, schedule: Q01DX009 (ip), vehicle: saline with Tween-80
  T/C: 102 % of control
dose: 5.0 mg/kg/injection, schedule: Q01DX009 (ip), vehicle: saline with Tween-80
  T/C: 101 % of control
dose: 10.0 mg/kg/injection, schedule: Q01DX009 (ip), vehicle: saline with Tween-80
  T/C: 103 % of control

## CC1(C)CCNc2ccccc2S1
dose: 100.0 mg/kg/injection, schedule: Q01DX001 (ip), vehicle: saline with Tween-80
  T/C: 103 % of control
dose: 200.0 mg/kg/injection, schedule: Q01DX001 (ip), vehicle: saline with Tween-80
  T/C: 103 % of control
dose: 400.0 mg/kg/injection, schedule: Q01DX001 (ip), vehicle: saline with Tween-80
  T/C: 100 % of control

## CC(=NC(C)(C)C)Nc1ccc(Cl)cc1
[8]
  T/C: 103 % of control
[9]
  T/C: 109 % of control

## CN1CCC(OC(=O)c2ccc3ncccc3c2)CC1
[10]
  T/C: 100 % of control
[11]
  T/C: 98 % of control
